Results taken from patent US20240366598A1, “GLUCOSE-DEPENDENT INSULINOTROPIC POLYPEPTIDE RECEPTOR ANTAGONISTS AND USES THEREOF” (Pfizer Inc., priority 2023, published 2024).

Each compound was assayed against T1, human Glucose-dependent Insulinotropic Polypeptide Receptor (hGIPR) (Homo sapiens, UniProt P48546) (assay: Functional in vitro GIPR antagonist potency assay (cAMP HTRF, CHO-K1 cells stably expressing hGIPR, hGIP stimulation at about EC80)). Conditions: geometric mean, hGIP at estimated EC80, examples marked ^2: overall geometric mean of multiple forms (including salts) tested.
T1 sequence (P48546 22-466): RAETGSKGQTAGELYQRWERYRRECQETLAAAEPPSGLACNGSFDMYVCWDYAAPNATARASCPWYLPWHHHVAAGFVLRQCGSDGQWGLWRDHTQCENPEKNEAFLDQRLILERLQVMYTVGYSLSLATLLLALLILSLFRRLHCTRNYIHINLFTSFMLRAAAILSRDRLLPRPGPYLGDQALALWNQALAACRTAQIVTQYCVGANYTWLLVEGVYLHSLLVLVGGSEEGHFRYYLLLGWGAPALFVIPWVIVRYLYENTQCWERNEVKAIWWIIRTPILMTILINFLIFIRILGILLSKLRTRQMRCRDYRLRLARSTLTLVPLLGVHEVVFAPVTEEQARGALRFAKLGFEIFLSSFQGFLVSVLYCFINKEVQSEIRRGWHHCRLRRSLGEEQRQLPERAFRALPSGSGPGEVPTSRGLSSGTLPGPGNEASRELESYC
Assay type: cell-based
Procedure: Example AA. Functional In Vitro GIPR Antagonist Potency Assay
The functional in vitro antagonist potency for test compounds was determined by monitoring intracellular cyclic adenosine monophosphate (cAMP) levels in Chinese hamster ovary (CHO)—K1 cells stably expressing the human Glucose-dependent Insulinotropic Polypeptide Receptor (hGIPR). Following agonist activation, hGIPR associates with the G-protein complex causing the Gαs subunit to exchange bound guanosine diphosphate (GDP) for guanosine triphosphate (GTP), followed by dissociation of the Gαs-GTP complex. The activated Gas subunit can couple to downstream effectors to regulate the levels of second messengers or cAMP within the cell. Thereby, determination of intracellular cAMP levels allows for pharmacological characterization. Intracellular cAMP levels are quantitated using a homogenous assay utilizing the Homogeneous Time Resolved Fluorescence (HTRF) technology from Perkin Elmer. […] The two entities compete for binding to a monoclonal anti-cAMP antibody labeled with cryptate. The specific signal is inversely proportional to the concentration of cAMP in the cells.
Test compounds were solubilized to a concentration of 30 mM in 100% dimethyl sulfoxide (DMSO). An 11-point dilution series using 1 in 3.162-fold serial dilutions was created in 100% DMSO with a top concentration of 8 mM. The serially diluted compound was spotted with an Echo Acoustic liquid handler (Beckman Coulter) into a 384-well assay plate (Corning, Cat No. 3824) at 50 nL/well with duplicate points at each concentration, at a 200× final assay concentration (FAC). The final compound concentration range in the assay was 40 μM to […], with a final DMSO concentration of 0.5%.
Frozen assay-ready vials (at 1×10^7 cells/vial) of CHO-K1 cells stably expressing the Gs-coupled human GIPR receptor (Eurofins, DiscoverX, Cat No. 95-0146C2) were thawed, counted, and resuspended in assay buffer consisting of Hank's Balanced Salt Solution (HBSS, Lonza Cat No. 10-527) containing 20 mM (4-(2-hydroxyethyl)-1-piperazineethanesulfonic acid (HEPES, Lonza, Cat No. 17-737E), 0.1% bovine serum albumin (BSA, Sigma, Cat No. A7979), and 200 μM 3-isobutyl-1-methylxanthine (IBMX, Sigma, Cat No. 15879) at a density of 4×10^5 cells/mL. Cells were added to assay plate (5 μL/well of 4×10^5 cells/mL stock for 2,000 cells/well final) containing 50 nL of 200× FAC test compound, and incubated at 37° C. (95% O2: 5% CO2) for 2 hours, with micro-clime lids (Labcyte, Cat No. LLS-0310). Following the 2-hour cell and compound incubation, a stimulation mix comprised of hGIPR agonist human glucose-dependent insulinotropic polypeptide (hGIP, full length, Sigma Cat No. G2269) in assay buffer/0.1% DMSO was added to the assay plate (5 μL/well) at an estimated EC80 FAC (based on previous hGIP agonist curves) and incubated for another 30 minutes with micro-clime lids at 37° C. (95% O2: 5% CO2), after which intracellular cAMP levels were quantified as per Perkin Elmer's protocol (5 μL of d2 and then 5 μL cryptate, incubated for 1 hour at room temperature). Emission spectra of samples were measured on a Pherastar plate reader (BMG Labtech Inc) using a HTRF protocol (excitation, 320 nm; emission, 665 nm/620 nm).
(95% O2: 5% CO2), with a micro-clime lid. Following the 2-hour cell and DMSO incubation, a hGIP concentration response curve at 2× FAC (12-point curve using 1 in 3 serial dilutions, with triplicate points at each concentration, 100 nM final top concentration) in assay buffer/1% DMSO was added (5 μL/well) and incubated for a further 30 minutes with a micro-clime lid at 37° C. (95% O2: 5% CO2), after which intracellular cAMP levels were quantified and samples measured as described previously. Experiments passed quality control if the agonist concentration used for stimulation fell between the on-the-day EC50-EC90. […]

| Compound | IC50 [nM] |
| --- | --- |
| CC(C)c1ccc(NC(=O)N2CCC[C@@H]2C(=O)Nc2ccc(-c3ccc(C(=O)O)cc3)cc2)cn1 [Example 62, 4′-[(1-{[6-(propan-2-yl)pyridin-3-yl]carbamoyl}-D-prolyl)amino][1,1′-biphenyl]-4-carboxylic acid] | 110 |
| CC(C)c1ccc(NC(=O)N2CCC[C@@H]2C(=O)Nc2ccc(-c3cc(C(=O)O)c(F)cc3F)cc2)cc1 [Example 45, 4,6-difluoro-4′-[(1-{[4-(propan-2-yl)phenyl]carbamoyl}-D-prolyl)amino][1,1′-biphenyl]-3-carboxylic acid] | 540 |
| O=C(O)c1ccc(-c2ccc(NC(=O)[C@H]3CCCN3C(=O)Nc3ccc(Br)cc3)cc2)cc1 [Example 63, 4′-({1-[(4-bromophenyl)carbamoyl]-D-prolyl}amino)[1,1′-biphenyl]-4-carboxylic acid] | 6.2 |
| Cc1cc(C(=O)O)c(F)cc1-c1ccc(NC(=O)[C@H]2CCCN2C(=O)Nc2ccc(C(C)C)cc2)cc1 [Example 84, 5-fluoro-2-methyl-4′-[(1-{[4-(propan-2-yl)phenyl]carbamoyl}-D-prolyl)amino][1,1′-biphenyl]-4-carboxylic acid] | 19 |
| O=C(O)[C@@H]1CCc2nc(NC(=O)[C@H]3CCCN3C(=O)Nc3ccc(C(F)(F)F)cc3)ccc2C1 (single isomer, unassigned) [Example 218, 2-[(1-{[4-(trifluoromethyl)phenyl]carbamoyl}-D-prolyl)amino]-5,6,7,8-tetrahydroquinoline-6-carboxylic acid, DIAST-2] | 33 |
| O=C(O)c1ccc(-c2ccc(NC(=O)[C@H]3CCCN3C(=O)Nc3ccc(C4(C(F)(F)F)CC4)cc3)cc2)cc1 [Example 42, ammonium 4′-{[1-({4-[1-(trifluoromethyl)cyclopropyl]phenyl}carbamoyl)-D-prolyl]amino}[1,1′-biphenyl]-4-carboxylate] | 15 |
| Cc1cc(C(=O)O)cc(Cl)c1-c1ccc(NC(=O)[C@H]2CCCN2C(=O)Nc2ccc(C(C)C)cc2)cc1 [Example 90, 2-chloro-6-methyl-4′-[(1-{[4-(propan-2-yl)phenyl]carbamoyl}-D-prolyl)amino][1,1′-biphenyl]-4-carboxylic acid] | 45 |

Other lines, results leading:

| IC50 [nM] | Compound |
| --- | --- |
| 9.9 | Cc1cc(-c2ccc(NC(=O)[C@H]3CCCN3C(=O)NCc3ccc(C(F)(F)F)c(F)c3)nc2)ccc1C(=O)O [Example 190, 4-(6-{[1-({[3-fluoro-4-(trifluoromethyl)phenyl]methyl}carbamoyl)-D-prolyl]amino}pyridin-3-yl)-2-methylbenzoic acid] |
| 45 | COc1cc(C(=O)O)ccc1-c1ccc(NC(=O)[C@H]2CCCN2C(=O)Nc2ccc(C(C)C)c(C)c2)nc1 [Example 156, 3-methoxy-4-{6-[(1-{[3-methyl-4-(propan-2-yl)phenyl]carbamoyl}-D-prolyl)amino]pyridin-3-yl}benzoic acid] |
| 77 | O=C(O)c1ccc(-c2ccc(NC(=O)[C@H]3CCCN3C(=O)NCc3ccc(Cl)cc3F)cc2)cc1 [Example 132, 4′-[(1-{[(4-chloro-2-fluorophenyl)methyl]carbamoyl}-D-prolyl)amino][1,1′-biphenyl]-4-carboxylic acid] |
| 69 | Cc1cc(NC(=O)N2CCC[C@@H]2C(=O)Nc2ccc(-c3ccc(C(=O)O)cc3)nc2)ncc1C(C)C [Example 198, 4-{5-[(1-{[4-methyl-5-(propan-2-yl)pyridin-2-yl]carbamoyl}-D-prolyl)amino]pyridin-2-yl}benzoic acid] |
| 42 | O=C(O)c1ccc(-c2ccc(NC(=O)[C@H]3CCCN3C(=O)NCc3cc(F)c(Cl)cc3F)cc2)cc1 [Example 138, 4′-[(1-{[(4-chloro-2,5-difluorophenyl)methyl]carbamoyl}-D-prolyl)amino][1,1′-biphenyl]-4-carboxylic acid] |
| 12 | Cc1cc(-c2ccc(NC(=O)[C@H]3CCCN3C(=O)NCc3ccc(C(F)(F)F)cc3)nc2)ccc1C(=O)O [Example 192, 2-methyl-4-(6-{[1-({[4-(trifluoromethyl)phenyl]methyl}carbamoyl)-D-prolyl]amino}pyridin-3-yl)benzoic acid] |
